Measured values taken from patent US6537986B2, “Oxazolidinone antibacterial agents having a thiocarbonyl funtionality” (Pharmacia & Upjohn Company, priority 1997, dated 2003).
≈ marks a conversion by molar mass, not a printed value. Like-named read-outs stand apart in the source and are kept apart here.

Assays:
E. Faecium (EFAE 12712) = test: MIC, standard agar dilution method; assay type: cell-based; conditions: Enterococcus faecium; Table II; key: E. Faecium; agar dilution, Mueller Hinton agar, incubated overnight at 35° C.; read-out: EFAE 12712 MIC
Description: (§1) MIC Test Method The in vitro MICs of test compounds were determined by a standard agar dilution method. […] Serial 2-fold dilutions of each sample are made using 1.0 ml aliquots of sterile distilled water. To each 1.0 ml aliquot of drug is added 9 ml of molten Mueller Hinton agar medium. The drug-supplemented agar is mixed, poured into 15×100 mm petri dishes, and allowed to solidify and dry prior to inoculation. Vials of each of the test organisms are maintained frozen in the vapor phase of a liquid nitrogen freezer. Test cultures are grown overnight at 35° C. on the medium appropriate for the organism. Colonies are harvested with a sterile swab, and cell suspensions are prepared in Trypticase Soy broth (TSB) to equal the turbidity of a 0.5 McFarland standard. A 1:20 dilution of each suspension is made in TSB. […] The plates are incubated overnight at 35° C. Following incubation the Minimum Inhibitory Concentration (MIC μg/ml), the lowest concentration of drug that inhibits visible growth of the organism, is read and recorded.

[1] = test system: Enterococcus faecalis (EFAE 9217); test: MIC, standard agar dilution method; assay type: cell-based; conditions: incubated overnight at 35° C.
Description: as §1

[2] = test system: Haemophilus influenzae (HINF 30063); test: MIC, standard agar dilution method; assay type: cell-based; conditions: Haemophilus influenzae, Table II, Mueller Hinton agar, incubated overnight at 35° C.
Description: as §1

[3] = test system: Moraxella catarrhalis (MCAT 30610); test: MIC, standard agar dilution method; assay type: cell-based; conditions: Moraxella catarrhalis, Table II, Mueller Hinton agar, incubated overnight at 35° C.
Description: as §1

S. aureus (SAUR 9213) = test: MIC, standard agar dilution method; assay type: cell-based; conditions: Staphylococcus aureus, incubated overnight at 35° C.
Description: as §1

[4] = test system: S. epidermidis (SEPI 30593); test: MIC, standard agar dilution method; assay type: cell-based; conditions: Staphylococcus epidermidis, Table II, Mueller Hinton agar, incubated overnight at 35° C.
Description: as §1

[5] = test system: S. pneumoniae (SPNE 9912); test: MIC, standard agar dilution method; assay type: cell-based; conditions: Streptococcus pneumoniae, incubated overnight at 35° C.
Description: as §1

S. pyogenes (SPYO 152) = test: MIC, standard agar dilution method; assay type: cell-based; conditions: Streptococcus pyogenes, incubated overnight at 35° C.
Description: as §1

[6] = test system: S. epidermidis (SEPI 12084); test: MIC, standard agar dilution method; assay type: cell-based; conditions: Staphylococcus epidermidis, Table 1, Mueller Hinton agar, incubated overnight at 35° C., read-out: Oxazolidinone MIC Values (Gram+) SEPI 12084
Description: MIC Test Method The in vitro MICs of test compounds were determined by a standard agar dilution method. A stock drug solution of each analog is prepared in the preferred solvent, usually DMSO:H2O (1:3). Serial 2-fold dilutions of each sample are made using 1.0 ml aliquots of sterile distilled water. To each 1.0 ml aliquot of drug is added 9 ml of molten Mueller Hinton agar medium. The drug-supplemented agar is mixed, poured into 15×100 mm petri dishes, and allowed to solidify and dry prior to inoculation. Vials of each of the test organisms are maintained frozen in the vapor phase of a liquid nitrogen freezer. Test cultures are grown overnight at 35° C. on the medium appropriate for the organism. Colonies are harvested with a sterile swab, and cell suspensions are prepared in Trypticase Soy broth (TSB) to equal the turbidity of a 0.5 McFarland standard. A 1:20 dilution of each suspension is made in TSB. […] The plates are incubated overnight at 35° C. Following incubation the Minimum Inhibitory Concentration (MIC μg/ml), the lowest concentration of drug that inhibits visible growth of the organism, is read and recorded.

[7] = Enterococcus faecalis, Table 1, Mueller Hinton agar, read-out: Oxazolidinone MIC Values (Gram+) EFAE 9217
[8] = Table II, key: Enterococcus faecalis, Mueller Hinton agar, read-out: EFAE 9217 MIC
[9] = Table 1, Mueller Hinton agar, read-out: Oxazolidinone MIC Values (Gram+) SAUR 9213
[10] = Table II, Mueller Hinton agar, read-out: SAUR 9213 MIC
[11] = Table 1, Mueller Hinton agar, read-out: Oxazolidinone MIC Values (Gram+) SPNE 9912
[12] = Table II, Mueller Hinton agar, read-out: SPNE 9912 MIC
[13] = Table 1, Mueller Hinton agar, read-out: Oxazolidinone MIC Values (Gram+) SPYO 152
[14] = Table II, Mueller Hinton agar, read-out: SPYO 152 MIC

| SMILES | MIC (E. Faecium (EFAE 12712)) [µg/mL] | MIC [1, 7] [µg/mL] | MIC [1, 8] [µg/mL] | MIC [2] [µg/mL] | MIC [3] [µg/mL] | MIC (S. aureus (SAUR 9213); [9]) [µg/mL] | MIC (S. aureus (SAUR 9213); [10]) [µg/mL] | MIC [4] [µg/mL] | MIC [5, 11] [µg/mL] | MIC [5, 12] [µg/mL] | MIC (S. pyogenes (SPYO 152); [13]) [µg/mL] | MIC (S. pyogenes (SPYO 152); [14]) [µg/mL] | MIC [6] [µg/mL] | melting point [°C] |
| --- | --- | --- | --- | --- | --- | --- | --- | --- | --- | --- | --- | --- | --- | --- |
| CC(=S)NC[C@H]1CN(c2ccc(N3CCOCC3)c(F)c2)C(=O)O1 [Example 1, (S)-N-[[3-[3-Fluoro-4-(4-morpholinyl)phenyl]-2-oxo-5-oxazolidinyl]methyl]thioacetamide] | 0.5 (≈ 1.41 µM) | 0.5 (≈ 1.41 µM) | 0.5 (≈ 1.41 µM) | 8 (≈ 22.6 µM) | 1 (≈ 2.83 µM) | 1 (≈ 2.83 µM) | 1 (≈ 2.83 µM) | 0.25 (≈ 0.707 µM) | 0.13 (≈ 0.368 µM) | < 0.125 | 0.13 (≈ 0.368 µM) | < 0.125 | 0.25 (≈ 0.707 µM) | 157.5 to 158.5 |
| CC(=S)NC[C@H]1CN(c2ccc(N3CCN(c4nnc(C)s4)CC3)c(F)c2)C(=O)O1 [Example 2, (S)-N-[[3-[3-Fluoro-4-[4-(5-methyl-1,3,4-thiadiazol-2-yl)-1-piperazinyl]phenyl]-2-oxo-5-oxazolidinyl]methyl]thioacetamide] | 8 (≈ 17.8 µM) | 4 (≈ 8.88 µM) | 4 (≈ 8.88 µM) | > 16 | > 16 | 8 (≈ 17.8 µM) | 8 (≈ 17.8 µM) | 4 (≈ 8.88 µM) | 2 (≈ 4.44 µM) | 2 (≈ 4.44 µM) | 4 (≈ 8.88 µM) | 4 (≈ 8.88 µM) | 2 (≈ 4.44 µM) | 222 to 223 |
| CC(=S)NC[C@H]1CN(c2ccc(N3CCC4(CC3)NC(=O)NC4=O)c(F)c2)C(=O)O1 [Example 3, (S)-N-[[3-[3-Fluoro-4-[2′,5′-dioxospiro[piperidine-4,4′-imidazolidine]-1-yl]phenyl]-2-oxo-5-oxazolidinyl]methyl]thioacetamide] | 1 (≈ 2.3 µM) | 2 (≈ 4.59 µM) | 2 (≈ 4.59 µM) | 16 (≈ 36.7 µM) | 4 (≈ 9.19 µM) | 4 (≈ 9.19 µM) | 4 (≈ 9.19 µM) | 1 (≈ 2.3 µM) | 0.25 (≈ 0.574 µM) | 0.25 (≈ 0.574 µM) | 0.5 (≈ 1.15 µM) | 0.5 (≈ 1.15 µM) | 1 (≈ 2.3 µM) |  |
| NC(=S)NC[C@H]1CN(c2ccc(N3CCOCC3)c(F)c2)C(=O)O1 [Example 5, (S)-N-[[3-[3-Fluoro-4-(4-morpholinyl)phenyl]-2-oxo-5-oxazolidinyl]methyl]thiourea] | 0.5 (≈ 1.41 µM) | 0.5 (≈ 1.41 µM) | 0.5 (≈ 1.41 µM) | 4 (≈ 11.3 µM) | 2 (≈ 5.64 µM) | 1 (≈ 2.82 µM) | 1 (≈ 2.82 µM) | 0.5 (≈ 1.41 µM) | < 0.125 | < 0.125 | 0.25 (≈ 0.705 µM) | 0.25 (≈ 0.705 µM) | 0.25 (≈ 0.705 µM) | 199 to 199.5 |
| CNC(=S)NC[C@H]1CN(c2ccc(N3CCOCC3)c(F)c2)C(=O)O1 [Example 6, (S)-N-[[3-[3-Fluoro-4-(4-morpholinyl)phenyl]-2-oxo-5-oxazolidinyl]methyl]-N′-methylthiourea] | 2 (≈ 5.43 µM) | 2 (≈ 5.43 µM) | 2 (≈ 5.43 µM) | 16 (≈ 43.4 µM) | 8 (≈ 21.7 µM) | 2 (≈ 5.43 µM) | 2 (≈ 5.43 µM) | 2 (≈ 5.43 µM) | 0.5 (≈ 1.36 µM) | 0.5 (≈ 1.36 µM) | 1 (≈ 2.71 µM) | 1 (≈ 2.71 µM) | 1 (≈ 2.71 µM) | 158 to 160 |
| CC(=O)NC[C@H]1CN(c2ccc(N3CCC4(CC3)NC(=O)NC4=O)c(F)c2)C(=O)O1 [reference compound] |  | 8 (≈ 19.1 µM) |  |  |  | 16 (≈ 38.1 µM) |  |  | 0.5 (≈ 1.19 µM) |  | 1 (≈ 2.38 µM) |  | 4 (≈ 9.54 µM) |  |
| CC(=O)NC[C@H]1CN(c2ccc(N3CCOCC3)c(F)c2)C(=O)O1 [reference compound] |  | 2 (≈ 5.93 µM) |  |  |  | 2 (≈ 5.93 µM) |  |  | 0.5 (≈ 1.48 µM) |  | 1 (≈ 2.96 µM) |  | 1 (≈ 2.96 µM) |  |
| CC(=O)NC[C@H]1CN(c2ccc(N3CCN(c4nnc(C)s4)CC3)c(F)c2)C(=O)O1 [reference compound] |  | 1 (≈ 2.3 µM) |  |  |  | 0.5 (≈ 1.15 µM) |  |  | 0.13 (≈ 0.299 µM) |  | 0.25 (≈ 0.575 µM) |  | 0.25 (≈ 0.575 µM) |  |
